{"source": "patent US20250144049A1", "about": "“METHODS, COMPOSITIONS, AND USES RELATED TO THE TREATMENT AND PREVENTION OF LEIGH SYNDROME” (Stealth BioTherapeutics Inc., priority 2023, published 2025)", "type_in_all_cases": "cell-based, human", "key": {"[1]": {"tested_on": "Healthy (GM08402) fibroblasts", "assay": "RSL3 cytoprotection assay, healthy fibroblasts", "settings": "1 μM RSL3, 4 hours, FIG. 8", "description": "(§1) Patient fibroblasts were acquired from Coriell Institute for Medical Research (Camden, NJ, USA). GM03672 is an untransformed fibroblast cell line from a Leigh syndrome patient carrying an unknown mutation. GM08402 is an untransformed fibroblast from an apparently healthy individual. Cells were cultured at 37° C. at 5% CO2 in Eagle's Minimum Essential Medium (MEM, Corning), which was supplemented with Earle's salts and non-essential amino acids, 15% qualified fetal bovine serum, and 1% penicillin/streptomycin ([…]) to yield “Complete MEM.”\n(§2) To initiate the RSL3 cytoprotection experiment, Healthy (GM08402) and Leigh syndrome (GM03672) fibroblasts were resuspended in Complete MEM. Cells were seeded at 10,000 cells per well in a clear, tissue cultured-treated, 96-well plate and incubated at 37° C. overnight. Following the incubation, supernatant was manually aspirated, taking care not to disrupt cells. […]. Luminescence units were quantified by GEN5 software on a BioTek SYNERGY neo2 plate reader (LUM filter).\n(§3) RSL3 is an inhibitor of the enzyme glutathione peroxidase 4 (GPX4), which decreases lipid peroxides. RSL3 inhibition of GPX4 induces ferroptosis through iron-dependent accumulation of lipid ROS. In this assay, Healthy or Leigh fibroblasts were treated for 4 hours with RSL3 to induce ferroptosis or left untreated. Endogenous ATP levels were measured as an indicator of cellular viability using a commercially available kit (CellTiter-Glo® 2.0 Cell Viability Assay (Promega)).\n(§4) […]. […] Briefly, ferroptosis was induced with 1 μM RSL3 in healthy fibroblast cells and 375 nM RSL3 in fibroblasts from a patient with Leigh syndrome.\n(§5) A preliminary experiment was performed to determine the effect of RSL3 injury on the fibroblasts of a healthy individual (cell line: GM08402) and the fibroblasts of a patient diagnosed with Leigh syndrome (cell line: GM03672)."}, "[2]": {"tested_on": "Leigh syndrome (GM03672) fibroblasts", "assay": "RSL3 cytoprotection assay, Leigh fibroblasts", "settings": "RSL3, 4 hours, FIG. 9", "description": "as §1, §2, §3, §4, §5"}, "[3]": {"tested_on": "Healthy (GM08402) fibroblasts", "assay": "Erastin cytoprotection assay, healthy fibroblasts", "settings": "2 μM erastin, 24 hours, FIG. 12", "description": "(§6) Briefly, Healthy (GM08402) or Leigh (GM03672) fibroblasts were resuspended in assay medium, seeded at 10,000 cells per well in a clear, tissue cultured-treated, 96-well plate, and incubated at 37° C. overnight. Following the incubation, supernatant was manually aspirated from wells, taking care not to disrupt cells. Fibroblasts were co-treated in a final volume of 100 μL with 2 μM erastin (Millipore Corp., Cat #), 250 μM ferric ammonium citrate (FAC), 50 µM ascorbic acid (AA), and a titration of one of each of Compounds 1 to 4 or Vatiquinone ranging from 10 to 1000 nM. Following another 24-hour incubation at 37° C., cell viability was measured using the CellTiter-Glo Luminescent Cell Viability Kit (ProMega) per Manufacturer's instructions. Luminescence units were quantified by GEN5 software on a BioTek SYNERGY neo2 plate reader (LUM filter).\n(§7) Briefly, erastin, like RSL3, is known to induce ferroptosis. […] Erastin was incubated with cell fibroblasts for 24 hours to induce ferroptosis. Cells were co-treated with each of Compounds 1 to 4, or Vatiquinone as the test articles. Test articles were administered at a range of concentrations to derive a curve. Cell viability was determined using a commercially available kit that measures ATP production. […] An increase in cell viability as determined by the assay is considered to be protective against ferroptosis."}, "[4]": {"tested_on": "Leigh (GM03672) fibroblasts", "assay": "Erastin cytoprotection assay, Leigh fibroblasts", "settings": "2 μM erastin, 24 hours, FIG. 13", "description": "as §6, §7"}, "[5]": {"tested_on": "Leigh fibroblasts (GM03672)", "assay": "Mitochondrial membrane potential (TMRM flow cytometry) in RSL3-treated Leigh fibroblasts", "settings": "1 μM RSL3 with 1 μM compound, 4 hours", "description": "Leigh fibroblasts (GM03672) were seeded in a 24-well, tissue culture-treated plate in complete MEM (MEM+15% FBS+1% penicillin/streptomycin) at a density of 1×10^5 cells per 500 μL and incubated overnight at 37° C. at 5% CO2. Cells were treated for 4 hours at 37° C. with either 1 μM RSL3, 1 μM RSL3 with 1 μM Compound 3 or media for untreated cells. Following the incubation, supernatant was removed and cells were treated with 0.25% trypsin for 5 min at 37° C. Trypsin was neutralized with an equal part MEM. Cells were dislodged with gentle pipetting and pelleted at 300×g for 5 minutes. Pellets were resuspended in 500 μL Fluobrite DMEM and cells were transferred to a 96-well, v-bottom plate. Cells were stained with 20 nM MitoTracker Green and 100 nM tetramethylrhodamine methyl ester (TMRM) Samples were incubated for 25 minutes at 37° C. Each well was mixed immediately prior to analysis to resuspend settled cells. Fluorescence intensity was measured on the BD Accuri C6 Plus Flow Cytometer. A minimum of 10,000 events per sample was collected. Data analysis was performed using FloJo vs. 10. Gating was performed by establishing an initial forward scatter vs. side scatter gate. […] Median fluorescence intensity (MFI) of TMRM fluorescence was determined. Using GraphPad Prism 10, statistical significance between groups was determined by One-way ANOVA. […]"}}}
{"smiles": "CC1=C(C)C(=O)C(CC[C@@](C)(O)COCCC[Si](C)(C)C)=C(C)C1=O", "note": "[Compound 3]", "values": [{"measurement": "anti-ferroptosis properties compared among test articles", "setting": "[1]", "result": "superior to Compounds 1, 4 and Vatiquinone"}, {"measurement": "anti-ferroptosis properties compared among test articles", "setting": "[2]", "result": "superior to Compounds 1, 4 and Vatiquinone"}, {"measurement": "protective effect compared among test articles", "setting": "[3]", "result": "superior in their protective effect"}, {"measurement": "protective effect compared among test articles", "setting": "[4]", "result": "superior in their protective effect"}, {"measurement": "protection from loss of mitochondrial membrane potential (TMRM MFI)", "setting": "[5]", "result": "protective"}]}
{"smiles": "CC1=C(C)C(=O)C(CC[C@](C)(O)CCCCCCCCC(F)(F)F)=C(C)C1=O", "note": "[Compound 4]", "values": [{"measurement": "anti-ferroptosis properties compared among test articles", "setting": "[1]", "result": "roughly equivalent"}, {"measurement": "anti-ferroptosis properties compared among test articles", "setting": "[2]", "result": "roughly equivalent"}, {"measurement": "protective effect compared among test articles", "setting": "[3]", "result": "about equally protective"}, {"measurement": "protective effect compared among test articles", "setting": "[4]", "result": "about equally protective"}, {"measurement": "protection from loss of mitochondrial membrane potential (TMRM MFI)", "setting": "[5]", "result": "protective"}]}
